Source: patent publication US12371752B2 (priority 2019, dated 2025)

System: Arthrobacter ureafaciens-derived neuraminidase
Experiment: Reactivity of probe with Arthrobacter ureafaciens-derived neuraminidase (time-dependent fluorescence intensity)
Assay type: biochemical
Conditions: probe 1 μM, 0.01 U neuraminidase, 100 mm NaOAc, 2 mM CaCl2, pH7.4, 37° C., excitation 490 nm, emission 520 nm
Method: A probe (HMRef-S-Neu5Ac) was dissolved in dimethyl sulfoxide (DMSO, fluorescence measurement grade, Dojindo Laboratories) to obtain a stock solution. The stock solution was diluted with a buffer solution (100 mm NaOAc, 2 mM CaCl2, pH7.4) such that a final concentration of the probe became 1 μM, to obtain a measurement solution.
A fluorescence spectrum of the measurement solution was obtained by Hitachi F-700, every one second (excitation wavelength 490 nm, emission wavelength 520 nm). Sixty seconds after initiation of measurement, 0.01 U of Arthrobacter ureafaciens-derived neuraminidase was added singly or in combination with an enzyme inhibitor.

Question: With `CC(=O)N[C@H]1[C@H]([C@H](O)[C@H](O)CO)O[C@@](Oc2ccc(COc3ccc4c(c3)Oc3cc(NCC(F)(F)F)ccc3C43OCc4ccccc43)cc2)(C(=O)O)C[C@@H]1O` (stereo partly shown) [HMRef-S-Neu5Ac] as the molecule, how does the “increase of fluorescence intensity by the reaction with the bacterium-derived neuraminidase” value read?
Answer: The value was 130 times.
